Measured values taken from PubChem BioAssay AID2060912 (Molecular Pharmacology Branch, DTP, NCI, 2025).

Test system: HUVEC/MSC spheroids viability
Experiment: Human HUVEC/MSC cell line growth inhibition [KRAS2];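 as to viability, T/C: percent of DMSO vehicle control luminescence so 100% = untreated viability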
Settings: for IC50: curve of first compound; for viability, T/C: stronger effect = lower value
In short: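 Growth/viability of tumour-free HUVEC–hMSC spheroids was measured after exposure to targeted small molecules and KRAS inhibitors, singly or in combination. Agents were diluted in half-log steps from Cmax-based top concentrations, capped at 10 microM without known Cmax.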

[1] = second compound 0.0316 µM, first compound 0.0316 µM
[2] = second compound 0.0316 µM, first compound 0.1 µM
[3] = second compound 0.0316 µM, first compound 0.316 µM
[4] = second compound 0.0316 µM, first compound 1 µM
[5] = second compound 0.0316 µM, first compound 3.16 µM
[6] = second compound 0.0316 µM, first compound 10 µM
[7] = second compound 0.1 µM, first compound 0.0316 µM
[8] = second compound 0.1 µM, first compound 0.1 µM
[9] = second compound 0.1 µM, first compound 0.316 µM
[10] = second compound 0.1 µM, first compound 1 µM
[11] = second compound 0.1 µM, first compound 3.16 µM
[12] = second compound 0.1 µM, first compound 10 µM
[13] = second compound 0.316 µM, first compound 0.0316 µM
[14] = second compound 0.316 µM, first compound 0.1 µM
[15] = second compound 0.316 µM, first compound 0.316 µM
[16] = second compound 0.316 µM, first compound 1 µM
[17] = second compound 0.316 µM, first compound 3.16 µM
[18] = second compound 0.316 µM, first compound 10 µM
[19] = second compound 1 µM, first compound 0.0316 µM
[20] = second compound 1 µM, first compound 0.1 µM
[21] = second compound 1 µM, first compound 0.316 µM
[22] = second compound 1 µM, first compound 1 µM
[23] = second compound 1 µM, first compound 3.16 µM
[24] = second compound 1 µM, first compound 10 µM
[25] = second compound 3.16 µM, first compound 0.0316 µM
[26] = second compound 3.16 µM, first compound 0.1 µM
[27] = second compound 3.16 µM, first compound 0.316 µM
[28] = second compound 3.16 µM, first compound 1 µM
[29] = second compound 3.16 µM, first compound 3.16 µM
[30] = second compound 3.16 µM, first compound 10 µM
[31] = second compound 10 µM, first compound 0.0316 µM
[32] = second compound 10 µM, first compound 0.1 µM
[33] = second compound 10 µM, first compound 0.316 µM
[34] = second compound 10 µM, first compound 1 µM
[35] = second compound 10 µM, first compound 3.16 µM
[36] = second compound 10 µM, first compound 10 µM

Compound `CC1COCCN1c1cc(-c2ccnn2C)c2ccnc(-c3ccn[nH]3)c2n1` (stereo not drawn) + CNCc1ccccc1-c1csc(C(C)Nc2nc(C)nc3cc(OC)c(OC)cc23)c1 has an IC50 (second compound 0.0316 µM) of 1.61 µM, an IC50 (second compound 0.1 µM) of 3 µM and an IC50 (second compound 0.316 µM) of 1.77 µM. The IC50 (second compound 1 µM) was 1.26 µM, the IC50 (second compound 3.16 µM) was over 3 µM and the IC50 (second compound 10 µM) was under 0.00949 µM. The viability, T/C (second compound 0.0316 µM, first compound 0.00949 µM) was 102%, the viability, T/C (second compound 0.0316 µM, first compound 0.03 µM) was 96.5% and the viability, T/C (second compound 0.0316 µM, first compound 0.0949 µM) was 87%. For the same compound, the viability, T/C (second compound 0.0316 µM, first compound 0.3 µM) was 74.9%, the viability, T/C (second compound 0.0316 µM, first compound 0.949 µM) was 54.1% and the viability, T/C (second compound 0.0316 µM, first compound 3 µM) was 43.8%. For the same compound, the viability, T/C (second compound 0.1 µM, first compound 0.00949 µM) was 88.4%, the viability, T/C (second compound 0.1 µM, first compound 0.03 µM) was 98.8% and the viability, T/C (second compound 0.1 µM, first compound 0.0949 µM) was 105%. For the same compound, the viability, T/C (second compound 0.1 µM, first compound 0.3 µM) was 78.2%, the viability, T/C (second compound 0.1 µM, first compound 0.949 µM) was 63.1% and the viability, T/C (second compound 0.1 µM, first compound 3 µM) was 48.3%. It also gave a viability, T/C (second compound 0.316 µM, first compound 0.00949 µM) of 97.5%, a viability, T/C (second compound 0.316 µM, first compound 0.03 µM) of 95.1% and a viability, T/C (second compound 0.316 µM, first compound 0.0949 µM) of 74%. For the same compound, the viability, T/C (second compound 0.316 µM, first compound 0.3 µM) was 66.7%, the viability, T/C (second compound 0.316 µM, first compound 0.949 µM) was 60.4% and the viability, T/C (second compound 0.316 µM, first compound 3 µM) was 42.8%. For the same compound, the viability, T/C (second compound 1 µM, first compound 0.00949 µM) was 85.8%, the viability, T/C (second compound 1 µM, first compound 0.03 µM) was 78% and the viability, T/C (second compound 1 µM, first compound 0.0949 µM) was 70.6%. The viability, T/C (second compound 1 µM, first compound 0.3 µM) was 67.1%, the viability, T/C (second compound 1 µM, first compound 0.949 µM) was 54.8% and the viability, T/C (second compound 1 µM, first compound 3 µM) was 37.7%. The viability, T/C (second compound 3.16 µM, first compound 0.00949 µM) was 94%, the viability, T/C (second compound 3.16 µM, first compound 0.03 µM) was 101% and the viability, T/C (second compound 3.16 µM, first compound 0.0949 µM) was 92.6%. It also gave a viability, T/C (second compound 3.16 µM, first compound 0.3 µM) of 81.8%, a viability, T/C (second compound 3.16 µM, first compound 0.949 µM) of 80.1% and a viability, T/C (second compound 3.16 µM, first compound 3 µM) of 67.6%. The viability, T/C (second compound 10 µM, first compound 0.00949 µM) was 0.34%, the viability, T/C (second compound 10 µM, first compound 0.03 µM) was 0.43% and the viability, T/C (second compound 10 µM, first compound 0.0949 µM) was 0.45%. It also gave a viability, T/C (second compound 10 µM, first compound 0.3 µM) of 0.45%, a viability, T/C (second compound 10 µM, first compound 0.949 µM) of 0.4% and a viability, T/C (second compound 10 µM, first compound 3 µM) of 0.37%.
For `CC1OCC2(CCN(c3cnc(Sc4ccnc(N)c4Cl)c(N)n3)CC2)C1N` (stereo not drawn) + CNCc1ccccc1-c1csc(C(C)Nc2nc(C)nc3cc(OC)c(OC)cc23)c1, the IC50 (second compound 0.0316 µM) was over 10 µM, the IC50 (second compound 0.1 µM) was 6.91 µM and the IC50 (second compound 0.316 µM) was 6.2 µM. The IC50 (second compound 1 µM) was 6.91 µM, the IC50 (second compound 3.16 µM) was 4.95 µM and the IC50 (second compound 10 µM) was under 0.0316 µM. For the same compound, the viability, T/C [1] was 90.2%, the viability, T/C [2] was 104% and the viability, T/C [3] was 86.8%. For the same compound, the viability, T/C [4] was 80.1%, the viability, T/C [5] was 83.1% and the viability, T/C [6] was 51.9%. It also gave a viability, T/C [7] of 94.5%, a viability, T/C [8] of 108% and a viability, T/C [9] of 90.4%. It also gave a viability, T/C [10] of 74.2%, a viability, T/C [11] of 68% and a viability, T/C [12] of 42.5%. The viability, T/C [13] was 90.2%, the viability, T/C [14] was 81.9% and the viability, T/C [15] was 78.2%. It also gave a viability, T/C [16] of 69.9%, a viability, T/C [17] of 70.3% and a viability, T/C [18] of 38.5%. For the same compound, the viability, T/C [19] was 74.6%, the viability, T/C [20] was 104% and the viability, T/C [21] was 79.1%. The viability, T/C [22] was 67.4%, the viability, T/C [23] was 68.8% and the viability, T/C [24] was 42.5%. The viability, T/C [25] was 90.8%, the viability, T/C [26] was 98.7% and the viability, T/C [27] was 82%. For the same compound, the viability, T/C [28] was 89.2%, the viability, T/C [29] was 78.9% and the viability, T/C [30] was 4.77%. For the same compound, the viability, T/C [31] was 0.35%, the viability, T/C [32] was 0.39% and the viability, T/C [33] was 0.53%. For the same compound, the viability, T/C [34] was 0.42%, the viability, T/C [35] was 0.4% and the viability, T/C [36] was 0.25%.
With `CCNC(=O)CC1N=C(c2ccc(Cl)cc2)c2cc(OC)ccc2-n2c(C)nnc21` (stereo not drawn) + CNCc1ccccc1-c1csc(C(C)Nc2nc(C)nc3cc(OC)c(OC)cc23)c1 the IC50 (second compound 0.0316 µM) was over 10 µM, the IC50 (second compound 0.1 µM) was over 10 µM and the IC50 (second compound 0.316 µM) was over 10 µM. For the same compound, the IC50 (second compound 1 µM) was over 10 µM, the IC50 (second compound 3.16 µM) was over 10 µM and the IC50 (second compound 10 µM) was under 0.0316 µM. It also gave a viability, T/C [1] of 89.8%, a viability, T/C [2] of 96.4% and a viability, T/C [3] of 88%. For the same compound, the viability, T/C [4] was 106%, the viability, T/C [5] was 114% and the viability, T/C [6] was 115%. For the same compound, the viability, T/C [7] was 96.8%, the viability, T/C [8] was 91.3% and the viability, T/C [9] was 109%. It also gave a viability, T/C [10] of 92.6%, a viability, T/C [11] of 120% and a viability, T/C [12] of 122%. The viability, T/C [13] was 75.2%, the viability, T/C [14] was 86.6% and the viability, T/C [15] was 91.3%. The viability, T/C [16] was 109%, the viability, T/C [17] was 94.1% and the viability, T/C [18] was 93.7%. It also gave a viability, T/C [19] of 69.5%, a viability, T/C [20] of 105% and a viability, T/C [21] of 98.5%. For the same compound, the viability, T/C [22] was 99.4%, the viability, T/C [23] was 127% and the viability, T/C [24] was 99.1%. The viability, T/C [25] was 86.8%, the viability, T/C [26] was 93.6% and the viability, T/C [27] was 117%. For the same compound, the viability, T/C [28] was 97.3%, the viability, T/C [29] was 108% and the viability, T/C [30] was 114%. The viability, T/C [31] was 0.39%, the viability, T/C [32] was 0.34% and the viability, T/C [33] was 0.4%. For the same compound, the viability, T/C [34] was 0.52%, the viability, T/C [35] was 0.39% and the viability, T/C [36] was 0.43%.
For `Cn1nccc1Nc1nccc(-c2cc3c(s2)C(C)(C)N(CCN2CCOCC2)C3=O)n1` + CNCc1ccccc1-c1csc(C(C)Nc2nc(C)nc3cc(OC)c(OC)cc23)c1, the IC50 (second compound 0.0316 µM) was 2.14 µM, the IC50 (second compound 0.1 µM) was 2.49 µM and the IC50 (second compound 0.316 µM) was 2.59 µM. For the same compound, the IC50 (second compound 1 µM) was 2.39 µM, the IC50 (second compound 3.16 µM) was 1.97 µM and the IC50 (second compound 10 µM) was under 0.0316 µM. It also gave a viability, T/C [1] of 94.5%, a viability, T/C [2] of 119% and a viability, T/C [3] of 117%. The viability, T/C [4] was 94.7%, the viability, T/C [5] was 26.9% and the viability, T/C [6] was 3.31%. For the same compound, the viability, T/C [7] was 85.8%, the viability, T/C [8] was 103% and the viability, T/C [9] was 105%. The viability, T/C [10] was 110%, the viability, T/C [11] was 36.7% and the viability, T/C [12] was 3.17%. It also gave a viability, T/C [13] of 88.2%, a viability, T/C [14] of 96.1% and a viability, T/C [15] of 103%. The viability, T/C [16] was 111%, the viability, T/C [17] was 39.6% and the viability, T/C [18] was 1.89%. The viability, T/C [19] was 83%, the viability, T/C [20] was 90.5% and the viability, T/C [21] was 103%. For the same compound, the viability, T/C [22] was 96.7%, the viability, T/C [23] was 36.2% and the viability, T/C [24] was 0.95%. It also gave a viability, T/C [25] of 102%, a viability, T/C [26] of 135% and a viability, T/C [27] of 128%. It also gave a viability, T/C [28] of 99.9%, a viability, T/C [29] of 15.4% and a viability, T/C [30] of 0.23%. The viability, T/C [31] was 0.35%, the viability, T/C [32] was 0.4% and the viability, T/C [33] was 0.48%. The viability, T/C [34] was 0.37%, the viability, T/C [35] was 0.37% and the viability, T/C [36] was 0.19%.
